Source: US11559057B2, “Insecticidal mixtures of bifenthrin and chlorantraniliprole” (FMC CORPORATION, priority 2019, dated 2023)

How the values were obtained:
Format in all cases: in vivo
C. includens 3rd instar = assay: Example 5A ratio study, treated leaf bioassay, mortality and Colby synergy (protocol A); details: at 7.5 g a.i./ha
Description: (§1) Ratios of bifenthrin to chlorantraniliprole were evaluated on various crops and target pests as indicated in the protocol disclosed Table 5A below where “Lab.” Refers to laboratory, “No. of Treat.” refers to number of treatments, and Total refers to the total number of insects tested. In each evaluation, foliar application was done, the insecticide action was contact/ingestion and 32 insects were evaluated in each treatment.
(§2) The treatment schedule shown in Table 5B was used where “dose” refers to application rate, “ratio” refers to the ratio of bifenthrin to chlorantraniliprole on an a.i. basis.
Treatments were applied inside a sprayer chamber simulating a volume of 200 l/ha over soybean plants. After a drying period, treated leaves were removed from the plants and placed inside 16 well trays containing agar solution (2%) covered with filter paper. […] Morality was evaluated after 96 hours. […]
Synergy or antagonism was determined using the Colby Equation where: E=X+(100−X)(Y)/100)=X+Y−X*Y/100. […]
Morality on C. includens was evaluated according to protocol A (refer to Table 5B) using treatment numbers 5.1, 5.3, 5.5 to 5.8 and 5.10 to 5.13 (refer to Table 5B). The results are reported in Table 5C below where mortality is the mean mortality, the E value was calculated by the Colby equation, and the synergy value is determined by dividing the mean mortality (%) by the expected value (E).

H. armigera 3rd instar = assay: Example 5B ratio study, treated leaf bioassay, mortality and Colby synergy (protocol B)
Description: as §1, §2
(§3) Treatments were applied inside a sprayer chamber simulating a volume of 200 l/ha over soybean plants. After a drying period, treated leaves were removed from the plants and placed inside 16 well trays containing agar solution (2%) covered with filter paper. Two 16 well trays were prepared for each treatment (32 larvae/treatment). One 3rd instar larva from laboratory strains was placed in each well over the treated leaf. Trays were kept under controlled conditions of 25° C., photoperiod of 14:10 hours, and 60% RH. Morality was evaluated after 96 hours. Mortality is defined as dead and moribund larvae.
(§4) Synergy or antagonism was determined using the Colby Equation where: E=X+(100−X)(Y)/100)=X+Y−X*Y/100. X is the observed result for compound A at p grams a.e./ha. Y is the observed result for compound B at q grams a.e./ha. E is the expected result for a mixture of A and B at (p+q) g a.i./ha if there is no synergy or antagonism. If the observed value for the combination of A and B is greater than E (Obs>E) then synergy is indicated. If the observed value for the combination of A and B is less than E (Obs<E) then antagonism is indicated.
Morality on H. armigera was evaluated according to protocol B (refer to Table 5B) using treatment numbers 5.1 to 5.13 (refer to Table 5B).

[1] = tested on: S. frugiperda laboratory strain (susceptible); assay: Example 5C ratio study, mortality and Colby synergy, laboratory strain (protocol G); details: Spodoptera frugiperda, 96 hours
Description: as §1, §2, §3, §4
(§5) Morality on S. frugiperda was evaluated according to protocols G and H (refer to Table 5B), but where two S. frugiperda strains were tested: a laboratory strain (susceptible) and a field strain in F3 generation sampled in the 2018/2019 season in Sinop-MT region using treatment numbers 5.1 to 5.10 (refer to Table 5B). The results are reported in Tables 5E (Laboratory Strain) and 5F (Filed Strain).

[2] = tested on: S. frugiperda field strain; assay: Example 5C ratio study, mortality and Colby synergy, field strain (protocol H)
Description: as §1, §2, §3, §4, §5

[3] = tested on: E. heros 3rd instar nymphs; assay: Example 5D ratio study on soybean plants, mortality and Colby synergy, nymphs (protocol C); details: statement for E. heros (nymphs and adults, protocols C and D)
Description: as §1, §2, §4
(§6) Morality on E. heros was evaluated according to protocols C and D (refer to Table 5B). […] Mortality was evaluated after 72 hours. […]

[4] = tested on: D. melachantus 3rd instar nymphs; assay: Example 5E ratio study, mortality and Colby synergy, nymphs (protocol E); details: statement for D. melacanthus (nymphs and adults, protocols E and F)
Description: as §1, §2, §4, §6
Morality on D. melachantus was evaluated according to protocols E and F (refer to Table 5B). […]

## CNC(=O)c1cc(Cl)cc(C)c1NC(=O)c1cc(Br)nn1-c1ncccc1Cl [Chlorantraniliprole, 5-bromo-N-[4-chloro-2-methyl-6-(methylcarbamoyl)phenyl]-2-(3-chloropyridin-2-yl)pyrazole-3-carboxamide]
C. includens 3rd instar
  control of C. includens: most effective
H. armigera 3rd instar; Helicoverpa armigera, Chlorantraniliprole 5 g a.i./ha, 96 hours
  mortality at 5 g/ha: 84.4%
H. armigera 3rd instar; Helicoverpa armigera, Chlorantraniliprole 7.5 g a.i./ha, 96 hours
  mortality at 7.5 g/ha: 100%
H. armigera 3rd instar; at 7.5 g a.i./ha
  H. armigera control: most effective
[1]; Chlorantraniliprole 5 g a.i./ha
  mortality at 5 g/ha: 96.9%
[1]; Chlorantraniliprole 7.5 g a.i./ha
  mortality at 7.5 g/ha: 100%
[2]; Spodoptera frugiperda, Chlorantraniliprole 5 g a.i./ha, 96 hours
  mortality at 5 g/ha: 40.6%
[2]; Spodoptera frugiperda, Chlorantraniliprole 7.5 g a.i./ha, 96 hours
  mortality at 7.5 g/ha: 59.4%
[3]
  control of E. heros: did not control
[4]
  control of D. melacanthus: did not control

## Cc1c(COC(=O)[C@@H]2[C@H](/C=C(\Cl)C(F)(F)F)C2(C)C)cccc1-c1ccccc1 (racemic) [Bifenthrin, 2-methylbiphenyl-3-ylmethyl (Z)-(1RS)-cis-3-(2-chloro-3,3,3-trifluoroprop-1-enyl)-2,2-dimethyl cyclopropanecarboxylate]
H. armigera 3rd instar; Helicoverpa armigera, Bifenthrin 10 g a.i./ha, 96 hours
  mortality at 10 g/ha: 0%
H. armigera 3rd instar; Helicoverpa armigera, Bifenthrin 15 g a.i./ha, 96 hours
  mortality at 15 g/ha: 0%
H. armigera 3rd instar; Helicoverpa armigera, Bifenthrin 30 g a.i./ha, 96 hours
  mortality at 30 g/ha: 0%
H. armigera 3rd instar; Helicoverpa armigera, Bifenthrin 45 g a.i./ha, 96 hours
  mortality at 45 g/ha: 0%
H. armigera 3rd instar; Helicoverpa armigera, Bifenthrin 60 g a.i./ha, 96 hours
  mortality at 60 g/ha: 9.4%
H. armigera 3rd instar; even at a higher dose of 60 g a.i./ha, H. armigera resistance to pyrethroids
  control of H. armigera: lower control
[1]; Bifenthrin 10 g a.i./ha
  mortality at 10 g/ha: 34.4%
[1]; Bifenthrin 15 g a.i./ha
  mortality at 15 g/ha: 53.1%
[1]; Bifenthrin 30 g a.i./ha
  mortality at 30 g/ha: 78.1%
[1]; Bifenthrin 45 g a.i./ha
  mortality at 45 g/ha: 96.9%
[1]; Bifenthrin 60 g a.i./ha
  mortality at 60 g/ha: 93.8%
[2]; Spodoptera frugiperda, Bifenthrin 10 g a.i./ha, 96 hours
  mortality at 10 g/ha: 3.1%
[2]; Spodoptera frugiperda, Bifenthrin 15 g a.i./ha, 96 hours
  mortality at 15 g/ha: 3.1%
[2]; Spodoptera frugiperda, Bifenthrin 30 g a.i./ha, 96 hours
  mortality at 30 g/ha: 15.6%
[2]; Spodoptera frugiperda, Bifenthrin 45 g a.i./ha, 96 hours
  mortality at 45 g/ha: 43.8%
[2]; Spodoptera frugiperda, Bifenthrin 60 g a.i./ha, 96 hours
  mortality at 60 g/ha: 43.8%
[2]; lower doses of bifenthrin, especially on the field strain
  control of S. frugiperda: lower control
